{
  "source": "patent US12193994B2",
  "about": "“Combination of a cell therapy and a gamma secretase inhibitor” (Juno Therapeutics, Inc., priority 2017, dated 2025)",
  "system": "MM1S cells",
  "test": "Serial restimulation of anti-BCMA CAR+ T cells with irradiated target cells: expansion and cytokines",
  "format": "cell-based, human",
  "settings": "0.001 μM and 1.0 μM",
  "source_text": "The ability of CAR T cells to expand ex vivo following repeated rounds of antigen stimulation can correlate with in vivo function and/or capacity of the cells to persist in in vivo (e.g., following administration and initial activation in response to encounter with antigen) (Zhao et al. (2015) Cancer Cell, 28:415-28). To assess the effect of the exemplary gamma secretase inhibitor on CAR-T cell activity after serial restimulation, anti-BCMA CAR+ T cells were generated as described above in Example 2, and irradiated BCMA-expressing target cells (MM1S cells) were added at an effector-to-target (E:T) ratio of 1:2 in the presence of LY3039478 at two different concentrations, either 0.001 μM (a concentration around the IC50) or a higher concentration of 1.0 μM (approximately 3 times Cmax), or with vehicle only control. The assay was performed on a composition of anti-BCMA CAR+ T cells generated from T cells derived from a healthy donor or from a donor with multiple myeloma. Every 3-4 days, CAR-expressing T cells were harvested, counted and re-plated at the initial seeding density with fresh media containing new irradiated target cells at the same E:T ratio in the presence or absence of the same concentration of LY3039478. A total of 3-5 rounds of stimulation were carried out during a 10-14 day culture period. Effects of the inhibitor on T cell function were assessed by monitoring the cell number (FIGS. 4A and 4B) or cytokine production in harvested supernatant (FIG. 5A and FIG. 5B) at each round of stimulation.\nThe production of cytokines by anti-BCMA CAR-T cells upon restimulation with antigen-expressing cells in the presence or absence of LY3039478 was assessed after the first round of re-plating at day 4. Culture supernatants were harvested 24 hours after re-plating, and IFN-gamma, IL-2 and TNF-alpha were measured from the culture supernatants.",
  "key": {"[1]": {"settings": "24 hours after re-plating at day 4, both donors"}},
  "data": [
    {"smiles": "C[C@H](NC(=O)CCC(F)(F)F)C(=O)N[C@@H]1C(=O)N(CCO)c2ncccc2-c2ccccc21", "note": "[LY3039478, 4,4,4-trifluoro-N-[(1S)-2-[[(7S)-5-(2-hydroxyethyl)-6-oxo-7H-pyrido[2,3-d][3]benzazepin-7-yl]amino]-1-methyl-2-oxo-ethyl]butanamide]", "values": [
      {"measurement": "levels of IFN-gamma", "setting": "[1]", "value": "Increased levels"},
      {"measurement": "levels of IL-2", "setting": "[1]", "value": "Increased levels"},
      {"measurement": "levels of TNF-alpha", "setting": "[1]", "value": "Increased levels"},
      {"measurement": "expansion of anti-BCMA CAR T cells", "setting": "E:T 1:2, 10-14 days, healthy and myeloma donor", "value": "increased expansion"},
      {"measurement": "detrimental effects on CAR-T cell function", "setting": "serial restimulation", "value": "did not exhibit any detrimental effects"}
    ]}
  ]
}
